Experimental data: patent US20230255943A1, “MMP-9 AND MMP-12 INHIBITION FOR TREATING SPINAL CORD INJURY OR RELATED INJURY TO NEUROLOGICAL TISSUE” (The University of Birmingham, priority 2020, published 2023)
“Also recorded” adds a separate entry of the source. Where a name gives a salt, the structure may show the parent alone.

How the values were obtained:
[1] = system: mice with DC crush injury; assay: Spinal cord water content (oedema) after DC crush injury in mice; type: in vivo, mouse; conditions: for spinal cord water content, comparison of MMP inhibitors (FIG. 4) / spinal cord water content: 3 days after DC injury; for spinal cord water content, comparison of MMP inhibitors (FIG. 4): doses and routes of Table 1, vs DC+vehicle
Description: For oral delivery of AZD1236, n=6 adult male C57BL6 mice/group (Charles River, Margate, UK) were randomly allocated to either: (1), Sham (control; partial laminectomy but no DC crush injury); (2), DC crush injury+vehicle (partial laminectomy followed by DC crush injury and injection of vehicle); (3), DC crush injury+100 mg/kg AZD1236; (4), DC crush injury+200 mg/kg AZD1236; and (5), DC crush injury+300 mg/kg AZD1236. For intrathecal (it) delivery of AZD1236, adult male C57BL6 mice (25-30 g) (Charles River, Margate, UK) were randomly allocated to either: (1), Sham (control; partial laminectomy but no DC crush injury); (2), DC crush injury+vehicle (partial laminectomy followed by DC crush injury and injection of vehicle); (3), DC crush injury+2.5 mg/kg AZD1236; (4), DC crush injury+5 mg/kg AZD1236; and (5), DC crush injury+10 mg/kg AZD1236. For intrathecal delivery an indwelling atlanto-occipital intrathecal catheter was inserted into the intrathecal space, as described previously (F. A. Oladosu, B. P. Ciszek, S. C. O'Buckley, A. G. Nackley, Novel intrathecal and subcutaneous catheter delivery systems in the mouse. J Neurosci Methods 264, 119-128 (2016)). Briefly, with mice in the sternal recumbency a small incision was made at the nape of the neck followed by detachment of the muscles on either side of the external occipital crest to expose the A-O membrane. The membrane was incised and a 6 cm Alzet mouse intrathecal catheter (Alzet, Cupertino, Calif., USA) and polyurethane segments were gently guided 2.5 cm into the intrathecal space. The catheter was secured using 4-0 silk sutures (Oasis Medical, IL) and the exposed end of the catheter was sealed off with a stainless-steel plug and affixed to the upper back. Animals were injected immediately with vehicle or AZD1236 followed by a 10 μl PBS catheter flush. Injections were repeated every twice daily for the first 3 days after injury and drugs and vehicle reagents were delivered over 1 min time period using a Hamilton microlitre syringe (Hamilton Co, USA). Where specified intact animals with no surgical procedures were also used. All lesions were administered under 5% isofluorane induced inhalation anaesthesia, with 1.51/min O2. Pre- and post-injury analgesia was also provided.
DC crush injury was administered bilaterally at the T8 vertebral level as described previously (S. Surey, M. Berry, A. Logan, R. Bicknell, Z. Ahmed, Differential cavitation, angiogenesis and wound-healing responses in injured mouse and rat spinal cords. Neuroscience 275, 62-80 (2014); M. L. Read, S. Mir, R. Spice, R. J. Seabright, E. L. Suggate, Z. Ahmed, M. Berry, A. Logan, Profiling RNA interference (RNAi)-mediated toxicity in neural cultures for effective short interfering RNA design. J Gene Med 11, 523-534 (2009)). Briefly, calibrated watchmaker's forceps were separated by 0.5 mm and inserted through the dorsal cord meninges to a depth of 0.45 mm in mice and separated by 1 mm and inserted through the dorsal cord meninges to a depth of 1.0 mm in rats, and the DC were crushed for 3 seconds. AZD1236 or vehicle was administered twice daily by oral gavage or intrathecally, either immediately for the first 3 days or 24 hours after injury and treating twice daily until day 4 (i.e. 3 days of AZD1236 dosing). All experiments were performed with n=6 mice/group and repeated on at least 2-3 independent occasions (total=12-18 animals/group/test).
The lesion site+3 mm either side for mice and the lesion site+5 mm either side for the rat DC model were dissected out and the water content of the spinal cord (as a measure of oedema) was determined at 3 days after DC and CC SCI, as described previously (S. Li, C. H. Tator, Effects of MK801 on evoked potentials, spinal cord blood flow and cord edema in acute spinal cord injury in rats. Spinal Cord 37, 820-832 (1999)). Spinal cords containing the lesion site were weighed on aluminium foil, dried at 105° C. for 24 hr, and re-weighed. […]

[2] = system: LPS-stimulated primary microglia; assay: LPS-induced cytokine production by primary microglia (ELISA); type: cell-based, mouse; conditions: LPS 10 ng/ml, 24 h
Description: Primary mouse microglia from 6-8-week-old C57BL/6 mouse brains were prepared according to a previously described protocol (Moussaud S, Draheim H J. A new method to isolate microglia from adult mice and culture them for an extended period of time. J Neurosci Methods 2010; 187(2): 243-53). Briefly, the meninges of brains were dissected out, finely minced enzymatically digested using 20 units/ml Papain (all from Sigma). After incubation for 90 min at 37° C., the suspension was centrifuged at 200 g for 7 min and the pellet resuspended in 0.5 mg/ml DNase I (Roche, Manheim, Germany) and triturated with fire-polished Pasteur pipettes of decreasing diameters. The homogenate was then filtered through a 70 μm cell strainer (Beckton Dickinson, Watford, UK), and centrifuged through a Percoll (GE Healthcare, Amersham, UK) gradient. Finally, the cell suspension was resuspended in DMEM/F12 medium supplemented with 10% FBS (all from Invitrogen) and 5 ng/ml of granulocyte colony and macrophage stimulating factor (GM-CSF) (#415-ML, R&D Systems. Watford, UK), plated out in T75 cell culture flasks (Beckton Dickinson) precoated with poly-L-lysine, and maintained at 37° C. and 5% CO2 for approximately 2 weeks. When the cells become confluent, microglia detach and migrate to the medium-air interface, floating and proliferating. The supernatant of the flask was then collected without prior shaking to remove the microglia growing on a mixed glial culture base and centrifuged at 200 g for 7 min. The purity of microglia was determined from each flask by immunocytochemistry for CD11b and confirmed as 95% pure. Before each experiment, microglia were cultured in DMEM/F12 without GM-CSF for at least 3 d.
Microglia were used for all experiments with an in vitro age between 15-20 d in vitro (DIV) and were seeded on glass coverslips in 24-well plates at a density of 3×10^4 cells/well. Microglia were exposed to serum-free media for 24 h before exposing the cells to different concentrations of lipopolyscaccharide (LPS) in preliminary experiments to determine optimal concentrations required to maximally activate our primary microglial cultures. This was determined as 10 ng/ml. For the microglial activation assay, cells were exposed to serum-free medium for 24 h before being exposed to LPS, with or without different concentrations of AZD1236, GM6001, SD2590 and MMP-9 Inhibitor I (all used at 10-500 ng/ml) for a further 24 h. Cell culture supernatant was then collected, centrifuged to remove cell debris and subjected to ELISA to determine the concentrations of TNF-α, IL-1β and IL-6. Experiments were performed in triplicate wells and repeated on 3 independent occasions (n=9 wells/treatment).
TNF-α (#MTA00B), IL-1β (#MLBOOC) and IL-6 (#M6000B) were determined using commercially available kits from R&D Systems, following the manufacturer's instructions.

`C[C@]1(CS(=O)(=O)N2CC=C(C#Cc3cnc(C4CC4)nc3)CC2)NC(=O)NC1=O` [AZD1236] was tested, and the “spinal cord water content, comparison of MMP inhibitors (FIG. 4)” value [1] was “far more effective than any of these compounds; also recorded: almost completely ablating DC injury-induced rises”, the “intrathecal dose required for same reduction of water content, as fraction of oral dose” value ([1]; intrathecal vs oral) was 1/40 and the “spinal cord water content” value ([1]; intrathecal, 5.0 and 10.0 mg/kg) was “reduced to sham-treated levels”. For the same compound, the “SCI-induced water content, 24-h delayed treatment” value ([1]; optimal doses, 24 h delay vs immediate) was “equally as effective as immediate delivery”, the “spinal cord water content” value ([1]; oral, twice daily, 200 mg/kg and 300 mg/kg) was “reducing to sham-treated levels” and the “TNF-α, IL-1β and IL-6 production by LPS-activated microglia” value (from here on “TNF-α, IL-1β and IL-6 production”) ([2]; 100 ng/ml) was “returning their concentrations to DMEM/F12-medium control levels”. The “TNF-α, IL-1β and IL-6 production” value ([2]; 500 ng/ml) was “completely suppressed the production of these cytokines” and the “TNF-α, IL-1β and IL-6 production” value ([2]; 10-500 ng/ml) was “dose-dependent decrease”.
With `CNC(=O)[C@H](Cc1c[nH]c2ccccc12)NC(=O)[C@@H](CC(=O)NO)CC(C)C` [GM6001, (2R)—N^4-Hydroxy-N^1-[(1S)-1-(1H-indol-3-ylmethyl)-2-(methylamino)-2-oxoethyl]-2-(2-methylpropyl)butanediamide, reference compound] the “spinal cord water content, comparison of MMP inhibitors (FIG. 4)” value [1] was “significantly reduced spinal cord water content” and the “TNF-α, IL-1β and IL-6 production” value ([2]; 10-500 ng/ml) was “marginal effects”.
In the case of `CCN(CC)Cc1cc(C)c(N(Cc2ccccc2)S(=O)(=O)c2ccc(OC)cc2)c(C(=O)NO)c1` [MMP-9 Inhibitor I, reference compound], the “spinal cord water content, comparison of MMP inhibitors (FIG. 4)” value [1] is reported as “significantly reduced spinal cord water content” and the “TNF-α, IL-1β and IL-6 production” value ([2]; 10-500 ng/ml) is reported as “marginal effects”.
`COCCN1CCC(C(=O)NO)(S(=O)(=O)c2ccc(Oc3ccc(OC(F)(F)F)cc3)cc2)CC1` [SD2590, N-Hydroxy-1-(2-methoxyethyl)-4-[4-[4-(trifluoromethoxy)phenoxy]phenyl]sulfonyl]-4-piperidinecarboxamide hydrochloride, reference compound] was tested, and the “spinal cord water content, comparison of MMP inhibitors (FIG. 4)” value [1] was “significantly reduced spinal cord water content” and the “TNF-α, IL-1β and IL-6 production” value ([2]; 10-500 ng/ml) was “marginal effects”.
